IC50 data for 16 compounds are collected here from patent EP4741392A1, “1H-PYRAZOLO[4,3-C]PYRIDINE COMPOUND, AND COMPOSITION THEREOF AND USE THEREOF” (Shenzhen TargetRx Co., Ltd., priority 2023, dated 2025).

Format in all cases: cell-based
One experiment concerns NIH/3T3 BTK C481S cells. The experiment in a line: Phosphor-BTK(Y223) assay, adherent cells. The following applies: Mus musculus, NIH3T3, phosphorylated BTK Y223, NIH/3T3 BTK C481S cells; read-out: NIH/3T3 BTK-C481S pBTK. The method in brief:
(§1)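 NIH/3T3 cells expressing WT or C481S BTK were pretreated with compound for 0.5 h at 37 °C, then stimulated with 1 mM Na3VO4 (final) for 2 h. Lysates were assayed by HTRF for p-BTK Y223 using the 665/620 nm ratio. IC50 was obtained by nonlinear fit of % inhibition versus 0.5% DMSO control.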

Another experiment concerns NIH/3T3 BTK WT cells. The experiment in a line: Phosphor-BTK(Y223) assay, adherent cells. Conditions: Mus musculus, NIH3T3, phosphorylated BTK Y223, NIH/3T3 BTK WT cells; read-out: NIH/3T3 BTK-WT pBTK. In a few lines:
as §1

The subject of another experiment is TMD8 cells. The experiment in a line: Viability assay of TMD8 cells (CTG). Conditions: Homo sapiens, cell viability, 120 hours. How it is done: (§2) The in vitro antiproliferative activity of the compounds of the present disclosure against TMD8 cells and OCI-LY10 cells was assayed using CTG (Cell Titer-Glo) luminescent cell viability assay. The specific assay methods were as follows. • a) TMD8 cells were cultured at 37 °C and 5% CO2 in complete medium [RPMI 1640 (supplier Gibco, product number 22400-089) + 10% FBS (supplier Gibco, product number 10091-148) + 1% P/S (supplier Hyclone, product number SV30010)]; OCI-LY10 cells were cultured at 37 °C and 5% CO2 in medium [IMDM (supplier Gibco, product number 31980-030) + 20% FBS (supplier Gibco, product number 10091-148) + 1% P/S (supplier Hyclone, product number SV30010) + 0.05 mM 2-Mercaptoethanol (supplier Sigma, product number M6250)]. • b) Cells in the logarithmic growth phase were harvested, and the total cell count and viable cell count were determined using a Vi-cell cell counter (supplier: BECKMAN COULTER, product number 2785198). • c) Cell density was adjusted using complete culture medium. Then, the cells were inoculated at 1500 cells per well in a 384-well cell culture plate (supplier Greiner, product number 781090). • d) The cells in the 384-well plate were cultured at 37 °C and 5% CO2 overnight. • e) A 10-fold drug solution was prepared, and then the serially diluted compound was transferred to the corresponding assay wells of the 384-well cell plate so that the final assay concentration was 1000 nM, with 9 concentrations, 3-fold dilutions, and triplicates for each drug concentration. • f) The cells in the 384-well plate with the drug added were cultured at 37 °C and 5% CO2 for another 120 hours. • g) The cells were removed from the incubator, and allowed to equilibrate at room temperature for 30 minutes. The cell state and compound solubility were observed under a microscope. • h) An equal volume of CellTiterGlo solution (supplier Promega, product number G7573) was added to each well, and the plate was incubated at room temperature for 30 minutes. • i) Then, the luminescent signal value was detected on an EnVision instrument (supplier PerkinElmer, product number 2441715).
(§3) The data were analyzed using XL-fit software (supplier: ID Business Solutions Ltd., software version: XL fit 5.5.0.5). Nonlinear regression was performed using X=Log(X), and the X values were transformed using a four-parameter Logistic model 205, from which the IC50 values were calculated. Inhibition rate % = (Max−samplevalue)/Max*100.(Max:DMSOnegativecontrol) [formula]

The next experiment relates to OCI-LY10 cells. The experiment in a line: Viability assay of OCI-LY10 cells (CTG). The following applies: Homo sapiens, OCI-Ly10, 120 h, cell viability, read-out: OCl-Ly10. How it is done: as §2, §3

In the case of `COc1ccc(F)cc1C(=O)NCc1ccc(-c2ncc(-c3ccc(C(=O)N4C[C@H](C)O[C@@H](C)C4)cn3)c3[nH]nc(N)c23)cc1` [Example 53, N-(4-(3-amino-7-(5-((2S,6S)-2,6-dimethylmorpholine-4-carbonyl)pyridin-2-yl)-1H-pyrazolo[4,3-c]pyridin-4-yl)benzyl)-5-fluoro-2-methoxybenzamide], the IC50 in the experiment on NIH/3T3 BTK C481S cells, in the experiment with NIH/3T3 BTK WT cells, with TMD8 cells and with OCI-LY10 cells was at most 5 nM throughout.

As for `COCCOc1ccc(-c2cnc(-c3ccc(CNC(=O)c4cc(F)ccc4OC)cc3)c3c(N)n[nH]c23)nc1` [Example 59, N-(4-(3-amino-7-(5-(2-methoxyethoxy)pyridin-2-yl)-1H-pyrazolo[4,3-c]pyridin-4-yl)benzyl)-5-fluoro-2-methoxybenzamide], the IC50 with NIH/3T3 BTK C481S cells, with NIH/3T3 BTK WT cells, in the experiment on TMD8 cells and with OCI-LY10 cells was at most 5 nM throughout.

On to `COc1ccc(F)cc1C(=O)NCc1ccc(-c2ncc(-c3ccc(OCCN(C)C)cn3)c3[nH]nc(N)c23)cc1` [Example 60, N-(4-(3-amino-7-(5-(2-(dimethylamino)ethoxy)pyridin-2-yl)-1H-pyrazolo[4,3-c]pyridin-4-yl)benzyl)-5-fluoro-2-methoxybenzamide], for which the IC50 with NIH/3T3 BTK C481S cells, in the experiment on NIH/3T3 BTK WT cells, in the experiment with TMD8 cells and with OCI-LY10 cells was at most 5 nM in each case.

Consider `COc1ccc(F)cc1C(=O)NCc1ccc(-c2ncc(-c3ccc(OCCN4CCOCC4)cn3)c3[nH]nc(N)c23)cc1` [Example 61, N-(4-(3-amino-7-(5-(2-morpholinoethoxy)pyridin-2-yl)-1H-pyrazolo[4,3-c]pyridin-4-yl)benzyl)-5-fluoro-2-methoxybenzamide], for which the IC50 in the experiment on NIH/3T3 BTK C481S cells, in the experiment with NIH/3T3 BTK WT cells, in the experiment with TMD8 cells and in the experiment with OCI-LY10 cells was at most 5 nM throughout.

On to `COc1ccc(F)cc1C(=O)NCc1ccc(-c2ncc(-c3ccc(OCCN4CCCC4)cn3)c3[nH]nc(N)c23)cc1` [Example 62, N-(4-(3-amino-7-(5-(2-(pyrrolidin-1-yl)ethoxy)pyridin-2-yl)-1H-pyrazolo[4,3-c]pyridin-4-yl)benzyl)-5-fluoro-2-methoxybenzamide], for which the IC50 in the experiment on NIH/3T3 BTK C481S cells, in the experiment on NIH/3T3 BTK WT cells, in the experiment with TMD8 cells and in the experiment with OCI-LY10 cells was at most 5 nM each time.

On to `COc1ccc(F)cc1C(=O)NCc1ccc(-c2ncc(-c3ccc(C(C)(C)O)cn3)c3[nH]nc(N)c23)cc1` [Example 65, N-(4-(3-amino-7-(5-(2-hydroxypropan-2-yl)pyridin-2-yl)-1H-pyrazolo[4,3-c]pyridin-4-yl)benzyl)-5-fluoro-2-methoxybenzamide], for which the IC50 is 5 to 10 nM in the experiment with NIH/3T3 BTK C481S cells, at most 5 nM in the experiment on NIH/3T3 BTK WT cells, at most 5 nM in the experiment on TMD8 cells and at most 5 nM with OCI-LY10 cells.

Take `COc1ccc(F)cc1C(=O)NCc1ccc(-c2ncc(-c3ccc(CN4CCCCC4)cn3)c3[nH]nc(N)c23)cc1` [Example 66, N-(4-(3-amino-7-(5-(piperidin-1-ylmethyl)pyridin-2-yl)-1H-pyrazolo[4,3-c]pyridin-4-yl)benzyl)-5-fluoro-2-methoxybenzamide]: the IC50 with NIH/3T3 BTK C481S cells, in the experiment on NIH/3T3 BTK WT cells, in the experiment on TMD8 cells and in the experiment with OCI-LY10 cells was at most 5 nM throughout.

Regarding `COc1ccc(F)cc1C(=O)NCc1ccc(-c2ncc(-c3ccc(CN4CCOCC4)cn3)c3[nH]nc(N)c23)cc1` [Example 67, N-(4-(3-amino-7-(5-(morpholinomethyl)pyridin-2-yl)-1H-pyrazolo[4,3-c]pyridin-4-yl)benzyl)-5-fluoro-2-methoxybenzamide], the IC50 in the experiment on NIH/3T3 BTK C481S cells, in the experiment on NIH/3T3 BTK WT cells, with TMD8 cells and in the experiment with OCI-LY10 cells was at most 5 nM each time.

Take `COc1ccc(F)cc1C(=O)NCc1ccc(-c2ncc(-c3ccc(CN4CCN(C)CC4)cn3)c3[nH]nc(N)c23)cc1` [Example 68, N-(4-(3-amino-7-(5-((4-methylpiperazin-1-yl)methyl)pyridin-2-yl)-1H-pyrazolo[4,3-c]pyridin-4-yl)benzyl)-5-fluoro-2-methoxybenzamide]: the IC50 in the experiment with NIH/3T3 BTK C481S cells, in the experiment with NIH/3T3 BTK WT cells, with TMD8 cells and with OCI-LY10 cells was at most 5 nM in each case.

With `COc1ccc(F)cc1C(=O)NCc1ccc(-c2ncc(-c3cc4ccccn4n3)c3[nH]nc(N)c23)cc1` [Example 69, N-(4-(3-amino-7-(pyrazolo[1,5-a]pyridin-2-yl)-1H-pyrazolo[4,3-c]pyridin-4-yl)benzyl)-5-fluoro-2-methoxybenzamide], the IC50 in the experiment on NIH/3T3 BTK C481S cells, in the experiment with NIH/3T3 BTK WT cells, in the experiment with TMD8 cells and in the experiment on OCI-LY10 cells was at most 5 nM each time.

`COc1ccc(F)cc1C(=O)NCc1ccc(-c2ncc(-c3cc4n(n3)CCN(C)C4)c3[nH]nc(N)c23)cc1` [Example 71, N-(4-(3-amino-7-(5-methyl-4,5,6,7-tetrahydropyrazolo[1,5-a]pyrazin-2-yl)-1H-pyrazolo[4,3-c]pyridin-4-yl)benzyl)-5-fluoro-2-methoxybenzamide]: the IC50 in the experiment on NIH/3T3 BTK C481S cells, with NIH/3T3 BTK WT cells, in the experiment with TMD8 cells and in the experiment on OCI-LY10 cells was at most 5 nM in each case.

In the case of `CCN1CCn2nc(-c3cnc(-c4ccc(CNC(=O)c5cc(F)ccc5OC)cc4)c4c(N)n[nH]c34)cc2C1` [Example 72, N-(4-(3-amino-7-(5-ethyl-4,5,6,7-tetrahydropyrazolo[1,5-a]pyrazin-2-yl)-1H-pyrazolo[4,3-c]pyridin-4-yl)benzyl)-5-fluoro-2-methoxybenzamide], the IC50 in the experiment with NIH/3T3 BTK C481S cells, with NIH/3T3 BTK WT cells, in the experiment with TMD8 cells and in the experiment with OCI-LY10 cells was at most 5 nM in each case.

As to `COc1ccc(F)cc1C(=O)NCc1ccc(-c2ncc(-c3ccc(N4CCN(C)C[C@@H]4C)cn3)c3[nH]nc(N)c23)cc1` [Example 74, (S)-N-(-4-(3-amino-7-(5-(2,4-dimethylpiperazin-1-yl)pyridin-2-yl) 1H-pyrazolo[4,3-c]pyridin-4-yl)benzyl)-5-fluoro-2-methoxybenzamide], the IC50 in the experiment with NIH/3T3 BTK C481S cells, in the experiment on NIH/3T3 BTK WT cells, in the experiment with TMD8 cells and in the experiment with OCI-LY10 cells was at most 5 nM in each case.

As to `COc1ccc(F)cc1C(=O)NCc1ccc(-c2ncc(-c3ccc(N4CCN(C)C[C@H]4C)cn3)c3[nH]nc(N)c23)cc1` [Example 75, (R)-N-(-4-(3-amino-7-(5-(2,4-dimethylpiperazin-1-yl)pyridin-2-yl) 1H-pyrazolo[4,3-c]pyridin-4-yl)benzyl)-5-fluoro-2-methoxybenzamide], the IC50 with NIH/3T3 BTK C481S cells, in the experiment with NIH/3T3 BTK WT cells, in the experiment on TMD8 cells and with OCI-LY10 cells was at most 5 nM each time.

Regarding `COc1ccc(F)cc1C(=O)NCc1ccc(-c2ncc(-c3ccc(N4CCOCC4)cn3)c3[nH]nc(N)c23)cc1` [Example 76, N-(4-(3-amino-7-(5-morpholinopyridin-2-yl)-1H-pyrazolo[4,3-c]pyridin-4-yl)benzyl)-5-fluoro-2-methoxybenzamide], the IC50 in the experiment with NIH/3T3 BTK C481S cells, in the experiment on NIH/3T3 BTK WT cells, in the experiment with TMD8 cells and in the experiment with OCI-LY10 cells was at most 5 nM each time.

Turning to `COc1ccc(F)cc1C(=O)NCc1ccc(-c2nc(C)c(-c3ncccn3)c3[nH]nc(N)c23)cc1` [Example 84, N-(4-(3-amino-6-methyl-7-(pyrimidin-2-yl)-1H-pyrazolo[4,3-c]pyridin-4-yl)benzyl)-5-fluoro-2-methoxybenzamide], the IC50 with NIH/3T3 BTK C481S cells fell in the range of 10 to 50 nM; with NIH/3T3 BTK WT cells it was 5 to 10 nM; in the experiment on TMD8 cells it was 5 to 10 nM; in the experiment on OCI-LY10 cells, 10 to 50 nM.
